The test concerns the target T1, Dopamine beta hydroxylase (Homo sapiens, UniProt P09172).
T1 construct: 125 μl of plasma; tissue Instituto Português do Sangue Transplantação; host or cells: human plasma from healthy donors
T1 sequence (P09172 40-617 limits assumed): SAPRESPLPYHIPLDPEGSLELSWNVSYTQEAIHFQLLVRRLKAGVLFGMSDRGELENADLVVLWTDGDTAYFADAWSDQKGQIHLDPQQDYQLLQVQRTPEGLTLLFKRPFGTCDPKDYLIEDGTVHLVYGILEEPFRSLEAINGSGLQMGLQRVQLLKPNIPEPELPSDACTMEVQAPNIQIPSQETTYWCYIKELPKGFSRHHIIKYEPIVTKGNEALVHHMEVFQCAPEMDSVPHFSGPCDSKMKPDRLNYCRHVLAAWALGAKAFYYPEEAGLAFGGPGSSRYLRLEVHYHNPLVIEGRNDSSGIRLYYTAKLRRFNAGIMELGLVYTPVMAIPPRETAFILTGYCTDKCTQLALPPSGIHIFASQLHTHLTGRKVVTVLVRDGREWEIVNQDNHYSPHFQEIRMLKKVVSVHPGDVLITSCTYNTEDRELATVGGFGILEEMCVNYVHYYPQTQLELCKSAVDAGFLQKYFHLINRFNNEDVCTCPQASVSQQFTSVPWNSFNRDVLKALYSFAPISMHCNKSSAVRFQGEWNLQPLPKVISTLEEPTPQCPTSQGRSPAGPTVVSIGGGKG
The experiment in a line: Dopamine beta hydroxylase activity in human plasma. The format is biochemical. To be noted: for Plasma (0.01 μM), activity in % of control: inhibitor 0.01 μM; for Plasma (0.1 μM), activity in % of control: inhibitor 0.1 μM; for Plasma (1 μM), activity in % of control: inhibitor 1 μM. The method in brief: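 Octopamine production from tyramine over 45 min at 37° C, measured photometrically at 330 nm after SCX extraction and periodate oxidation against an octopamine standard curve, indicates plasma DβH activity. Compounds tested at final 10, 100 and 1000 nM in human plasma, pH 5.0 cofactor buffer, 10 min preincubation; results as % of control.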

Counter-ions that a name gives are not always drawn.

As for `[2H]C([2H])([2H])n1c(CC(=O)N[C@@H]2CCOC2)c2n(c1=S)C[C@@]1(c3cc(Br)ccc3F)C[C@@H]21` [Example 465, 2-((5aS,6aR)-5a-(5-bromo-2-fluorophenyl)-2-(methyl-d)-3-thioxo-2,3,5,5a,6,6a-hexahydrocyclopropa[3,4]pyrrolo[1,2-c]imidazol-1-yl)-N—((R)-tetrahydrofuran-3-yl)acetamide], the “Plasma (0.01 μM), activity in % of control” value is 62.3 % of control and the “Plasma (0.1 μM), activity in % of control” value is given as 9.0 % of control.
Consider `O=C(Cc1[nH]c(=S)n2c1C[C@@H](c1c(F)ccc(Br)c1F)C2)NCC1CC1` [Example 95, (S)-2-(6-(3-bromo-2,6-difluorophenyl)-3-thioxo-2,5,6,7-tetrahydro-3H-pyrrolo[1,2-c]imidazol-1-yl)-N-(cyclopropylmethyl)acetamide], for which the “Plasma (0.1 μM), activity in % of control” value is listed as 24.0 % of control and the “Plasma (1 μM), activity in % of control” value is 0 % of control.
As for `Fc1cc(F)c(F)c([C@H]2Cc3c(CN4CCOCC4)[nH]c(=S)n3C2)c1F` [Example 209, (R)-1-(morpholinomethyl)-6-(2,3,5,6-tetrafluorophenyl)-6,7-dihydro-2H-pyrrolo[1,2-c]imidazole-3(5H)-thione Hydrochloride], the “Plasma (0.01 μM), activity in % of control” value is on record as 87.6 % of control and the “Plasma (0.1 μM), activity in % of control” value is 60.3 % of control.
`Cn1c(CC(=O)O)c2n(c1=S)C[C@H](c1c(F)ccc(F)c1F)C2` [Example 409, (S)-2-(2-methyl-3-thioxo-6-(2,3,6-trifluorophenyl)-2,5,6,7-tetrahydro-3H-pyrrolo[1,2-c]imidazol-1-yl)acetic Acid]: the “Plasma (0.01 μM), activity in % of control” value is 112.6 % of control and the “Plasma (0.1 μM), activity in % of control” value is given as 64.4 % of control.
For `Cn1c(CC(N)=O)c2n(c1=S)C[C@H](c1c(F)ccc(Br)c1F)C2` [Example 240, (S)-2-(6-(3-bromo-2,6-difluorophenyl)-2-methyl-3-thioxo-2,5,6,7-tetrahydro-3H-pyrrolo[1,2-c]imidazol-1-yl)acetamide] the same measures were 76.1 % of control and 39.2 % of control.
For `Fc1ccc(Br)cc1[C@]12C[C@H]1c1c(CCNCC(F)(F)F)[nH]c(=S)n1C2` [Example 180, (5aS,6aR)-5a-(5-bromo-2-fluorophenyl)-1-(2-((2,2,2-trifluoroethyl)amino)ethyl)-5,5a,6,6a-tetrahydrocyclopropa[3,4]pyrrolo[1,2-c]imidazole-3(2H)-thione], the “Plasma (0.01 μM), activity in % of control” value is 99.2 % of control and the “Plasma (0.1 μM), activity in % of control” value is listed as 22.3 % of control.
In the same order, the values of `O=C(Cc1[nH]c(=S)n2c1C[C@H](c1c(F)ccc(Br)c1F)C2)N1CCS(=O)(=O)CC1` [Example 125, (R)-2-(6-(3-bromo-2,6-difluorophenyl)-3-thioxo-2,5,6,7-tetrahydro-3H-pyrrolo[1,2-c]imidazol-1-yl)-1-(1,1-dioxidothiomorpholino)ethan-1-one] are 106.5 % of control and 43.7 % of control.
Take `CN1CCN(C(=O)Cc2[nH]c(=S)n3c2C[C@H](c2c(F)c(F)cc(F)c2F)C3)CC1` [Example 81, (R)-1-(4-methylpiperazin-1-yl)-2-(6-(2,3,5,6-tetrafluorophenyl)-3-thioxo-2,5,6,7-tetrahydro-3H-pyrrolo[1,2-c]imidazol-1-yl)ethan-1-one]: the “Plasma (0.1 μM), activity in % of control” value was 63.1 % of control and the “Plasma (1 μM), activity in % of control” value is 15.9 % of control.
For `CCOC(=O)Cc1[nH]c(=S)n2c1C[C@H](c1cc(F)ccc1F)C2` [Example 61, Ethyl (R)-2-(6-(2,5-difluorophenyl)-3-thioxo-2,5,6,7-tetrahydro-3H-pyrrolo[1,2-c]imidazol-1-yl)acetate] the same measures were 99.1 % of control and 47.9 % of control.
For the molecule `Cn1c(CC(=O)O)c2n(c1=S)C[C@@]1(c3cc(Br)ccc3F)C[C@@H]21` [Example 275, 2-((5aS,6aR)-5a-(5-bromo-2-fluorophenyl)-2-methyl-3-thioxo-2,3,5,5a,6,6a-hexahydrocyclopropa[3,4]pyrrolo[1,2-c]imidazol-1-yl)acetic acid], the “Plasma (0.01 μM), activity in % of control” value is given as 79.0 % of control and the “Plasma (0.1 μM), activity in % of control” value is given as 24.4 % of control.
As to `Cn1c(CC(=O)N2CCOCC2)c2n(c1=S)C[C@@]1(c3c(F)ccc(Cl)c3F)C[C@@H]21` [Example 421, 2-((5aS,6aR)-5a-(3-chloro-2,6-difluorophenyl)-2-methyl-3-thioxo-2,3,5,5a,6,6a-hexahydrocyclopropa[3,4]pyrrolo[1,2-c]imidazol-1-yl)-1-morpholinoethan-1-one], the “Plasma (0.01 μM), activity in % of control” value is given as 26.1 % of control and the “Plasma (0.1 μM), activity in % of control” value is on record as 5.8 % of control.
Consider `Cn1c(CC(=O)Nc2ncco2)c2n(c1=S)C[C@@H](c1c(F)ccc(F)c1F)C2` [Example 286, (R)-2-(2-methyl-3-thioxo-6-(2,3,6-trifluorophenyl)-2,5,6,7-tetrahydro-3H-pyrrolo[1,2-c]imidazol-1-yl)-N-(oxazol-2-yl)acetamide], for which the “Plasma (0.01 μM), activity in % of control” value is recorded as 73.8 % of control and the “Plasma (0.1 μM), activity in % of control” value is reported as 3.4 % of control.
For the molecule `O=C(Cc1[nH]c(=S)n2c1C[C@H](c1c(F)cccc1F)C2)N[C@@H]1CCOC1` [Example 77, 2-((R)-6-(2,6-difluorophenyl)-3-thioxo-2,5,6,7-tetrahydro-3H-pyrrolo[1,2-c]imidazol-1-yl)-N—((R)-tetrahydrofuran-3-yl)acetamide], the “Plasma (0.1 μM), activity in % of control” value is given as 87.2 % of control and the “Plasma (1 μM), activity in % of control” value is given as 38.9 % of control.
Regarding `Cn1c(CCC(=O)N[C@@H]2CCCOC2)c2n(c1=S)C[C@@H](c1c(F)ccc(F)c1F)C2` [Example 288, 3-((R)-2-methyl-3-thioxo-6-(2,3,6-trifluorophenyl)-2,5,6,7-tetrahydro-3H-pyrrolo[1,2-c]imidazol-1-yl)-N—((R)-tetrahydro-2H-pyran-3-yl)propanamide], the “Plasma (0.01 μM), activity in % of control” value was 82.0 % of control and the “Plasma (0.1 μM), activity in % of control” value is recorded as 81.1 % of control.
For `O=C(Cc1[nH]c(=S)n2c1C[C@H](c1c(F)c(F)cc(F)c1F)C2)NC1CCS(=O)(=O)CC1` [Example 129, (R)—N-(1,1-dioxidotetrahydro-2H-thiopyran-4-yl)-2-(6-(2,3,5,6-tetrafluorophenyl)-3-thioxo-2,5,6,7-tetrahydro-3H-pyrrolo[1,2-c]imidazol-1-yl)acetamide] the same measures were 50.1 % of control and 10.3 % of control.
Consider `O=C(Cc1[nH]c(=S)n2c1C[C@H](c1c(F)c(F)cc(F)c1F)C2)N1CCC[C@H]1CO` [Example 98, 1-((S)-2-(hydroxymethyl)pyrrolidin-1-yl)-2-((R)-6-(2,3,5,6-tetrafluorophenyl)-3-thioxo-2,5,6,7-tetrahydro-3H-pyrrolo[1,2-c]imidazol-1-yl)ethan-1-one], for which the “Plasma (0.1 μM), activity in % of control” value is reported as 53.1 % of control and the “Plasma (1 μM), activity in % of control” value is on record as 11.7 % of control.
Turning to `CN(CCc1[nH]c(=S)n2c1C[C@@H](c1c(F)ccc(Cl)c1F)C2)C(=O)N1CCCC1` [Example 227, (S)—N-(2-(6-(3-chloro-2,6-difluorophenyl)-3-thioxo-2,5,6,7-tetrahydro-3H-pyrrolo[1,2-c]imidazol-1-yl)ethyl)-N-methylpyrrolidine-1-carboxamide], the “Plasma (0.01 μM), activity in % of control” value is given as 86.8 % of control and the “Plasma (0.1 μM), activity in % of control” value is reported as 54.9 % of control.
In the same order, the values of `CN1CC(NC(=O)Cc2c3n(c(=S)n2C)C[C@H](c2c(F)ccc(Br)c2F)C3)CCC1=O` (stereo partly drawn) [Example 457, 2-((S)-6-(3-bromo-2,6-difluorophenyl)-2-methyl-3-thioxo-2,5,6,7-tetrahydro-3H-pyrrolo[1,2-c]imidazol-1-yl)-N-(1-methyl-6-oxopiperidin-3-yl)acetamide] are 42.1 % of control and 7.3 % of control.
As for `O=C(Cc1[nH]c(=S)n2c1C[C@@H](c1c(F)ccc(Cl)c1F)C2)NCCCN1CCOCC1` [Example 89, (S)-2-(6-(3-chloro-2,6-difluorophenyl)-3-thioxo-2,5,6,7-tetrahydro-3H-pyrrolo[1,2-c]imidazol-1-yl)-N-(3-morpholinopropyl)acetamide], the “Plasma (0.1 μM), activity in % of control” value was 4.3 % of control and the “Plasma (1 μM), activity in % of control” value was 0 % of control.
As for `Cn1c(CC(=O)N2CCOCC2)c2n(c1=S)C[C@@H](c1c(F)cccc1F)C2` [Example 445, (R)-2-(6-(2,6-difluorophenyl)-2-methyl-3-thioxo-2,5,6,7-tetrahydro-3H-pyrrolo[1,2-c]imidazol-1-yl)-1-morpholinoethan-1-one], the “Plasma (0.01 μM), activity in % of control” value is given as 95.1 % of control and the “Plasma (0.1 μM), activity in % of control” value is on record as 73.7 % of control.

These data come from US11434242B2, “Dopamine-b-hydroxylase inhibitors” (BIAL-PORTELA & Cª, S.A., priority 2017, dated 2022).
